In assay [1] the target is T1, Aminopeptidase N (Plasmodium falciparum FcB1/Columbia, UniProt O96935).
T1 sequence (O96935 whole entry): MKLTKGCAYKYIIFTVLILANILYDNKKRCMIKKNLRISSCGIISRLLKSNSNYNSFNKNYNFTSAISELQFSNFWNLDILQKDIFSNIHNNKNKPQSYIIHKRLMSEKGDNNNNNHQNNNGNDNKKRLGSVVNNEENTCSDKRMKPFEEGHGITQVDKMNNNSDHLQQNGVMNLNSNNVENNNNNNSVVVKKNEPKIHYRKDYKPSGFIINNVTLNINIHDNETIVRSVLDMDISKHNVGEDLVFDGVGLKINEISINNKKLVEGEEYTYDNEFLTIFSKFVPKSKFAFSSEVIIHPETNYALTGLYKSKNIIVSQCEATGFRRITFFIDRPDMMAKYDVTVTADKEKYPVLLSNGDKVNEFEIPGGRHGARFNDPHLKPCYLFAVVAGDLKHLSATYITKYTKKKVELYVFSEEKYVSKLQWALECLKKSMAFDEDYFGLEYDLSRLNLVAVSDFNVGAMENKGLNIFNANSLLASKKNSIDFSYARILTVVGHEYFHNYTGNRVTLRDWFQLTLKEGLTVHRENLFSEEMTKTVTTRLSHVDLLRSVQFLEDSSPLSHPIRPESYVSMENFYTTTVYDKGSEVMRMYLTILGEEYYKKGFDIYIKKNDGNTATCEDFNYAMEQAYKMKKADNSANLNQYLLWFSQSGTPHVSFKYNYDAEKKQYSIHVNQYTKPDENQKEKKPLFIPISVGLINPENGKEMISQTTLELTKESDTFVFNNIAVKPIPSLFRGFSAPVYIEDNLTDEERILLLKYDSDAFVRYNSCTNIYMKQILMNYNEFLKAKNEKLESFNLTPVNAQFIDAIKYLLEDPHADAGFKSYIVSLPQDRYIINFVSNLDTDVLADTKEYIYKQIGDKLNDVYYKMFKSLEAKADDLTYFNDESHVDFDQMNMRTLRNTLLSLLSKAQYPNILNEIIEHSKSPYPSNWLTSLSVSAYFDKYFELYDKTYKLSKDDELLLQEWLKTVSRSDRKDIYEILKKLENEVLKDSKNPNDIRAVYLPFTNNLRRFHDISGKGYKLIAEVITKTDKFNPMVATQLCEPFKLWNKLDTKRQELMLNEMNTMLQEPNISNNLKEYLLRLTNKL
Nature of the assay: P. falciparum M1AAP inhibitors, biochemical, fluorogenic H-Leu-NHMec substrate, 1536-well (AID 1445). Also on record: species or system Plasmodium falciparum 3D7, 3D7.

Assay [2] addresses T2, Leucine aminopeptidase (Plasmodium falciparum 3D7, UniProt Q8IL11).
T2 sequence (Q8IL11 whole entry): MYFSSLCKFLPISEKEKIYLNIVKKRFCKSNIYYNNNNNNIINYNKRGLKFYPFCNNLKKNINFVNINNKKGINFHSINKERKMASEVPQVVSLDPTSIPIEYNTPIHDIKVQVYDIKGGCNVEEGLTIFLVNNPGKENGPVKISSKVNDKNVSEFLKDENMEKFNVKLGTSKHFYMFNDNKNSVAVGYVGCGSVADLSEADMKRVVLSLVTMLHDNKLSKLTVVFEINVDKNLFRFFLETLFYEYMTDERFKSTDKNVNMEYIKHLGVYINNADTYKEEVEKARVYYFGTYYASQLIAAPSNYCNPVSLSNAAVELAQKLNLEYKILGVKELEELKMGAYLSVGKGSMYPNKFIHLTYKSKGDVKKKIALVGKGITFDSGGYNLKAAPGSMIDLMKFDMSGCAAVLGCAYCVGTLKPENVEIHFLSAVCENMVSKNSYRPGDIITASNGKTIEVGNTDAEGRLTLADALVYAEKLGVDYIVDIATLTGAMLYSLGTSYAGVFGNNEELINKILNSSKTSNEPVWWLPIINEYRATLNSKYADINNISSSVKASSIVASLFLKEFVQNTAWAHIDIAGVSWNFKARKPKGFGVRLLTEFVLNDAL
Nature of the assay: P. falciparum M17LAP inhibitors, primary screen, biochemical, fluorogenic H-Leu-NHMec substrate, 1536-well (AID 1619). Format: functional.

Assay [3] deals with Cytochrome P450 3A4 (Homo sapiens, UniProt P08684). The following applies: Potency.
The target in assay [4] is T3, Caspase-6 (Homo sapiens, UniProt P55212).
T3 sequence (P55212 whole entry): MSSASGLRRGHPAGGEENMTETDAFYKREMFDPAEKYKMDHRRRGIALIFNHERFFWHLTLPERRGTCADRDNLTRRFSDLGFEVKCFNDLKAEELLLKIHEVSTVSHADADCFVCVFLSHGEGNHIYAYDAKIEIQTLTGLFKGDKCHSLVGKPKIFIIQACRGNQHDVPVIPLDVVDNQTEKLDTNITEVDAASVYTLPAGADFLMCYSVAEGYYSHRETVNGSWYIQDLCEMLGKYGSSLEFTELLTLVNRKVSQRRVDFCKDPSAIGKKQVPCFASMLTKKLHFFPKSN
Kind of assay: human caspase-6 inhibitors, dose response, biochemical, VEID-R110 fluorescence, cherry-pick (AID 720632).

Assay [5] addresses Glyceraldehyde-3-phosphate dehydrogenase (Homo sapiens, UniProt P04406).
A short description of assay [6]: miR-122 activators in hepatoma reporter cells, dose response, cell-based, Huh7 psiCHECK-miR122, Renilla luciferase, cherry-picked (AID 651956).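 Also: huh7 hepatoma cells stably carrying a psiCHECK-2 miR-122 sensor plasmid; renilla luciferase signal reporting endogenous miR-122 activity after 48 h compound exposure.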 Format: functional.
Assay [7] is described as follows: HEK293T cytotoxicity, dose response, cytotoxicity control for miR-122 modulator project, cell-based, activator set, cherry-pick (AID 720690).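 Also: HEK293T human cells scored for general mammalian cytotoxicity.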 Format: functional.
A short description of assay [8]: HEK293T cytotoxicity, dose response, cytotoxicity control for miR-122 modulator project, cell-based, inhibitor set, cherry-pick, set 2 (AID 720697). It counts as functional.
Assay [9] can be described thus: HepG2 cell cytotoxicity, dose response, cytotoxicity control, cherry-picked samples (AID 1159577). Format: functional, cell-based.
Assay [10] in a line: P. falciparum Dd2 growth inhibitors, dose response, SYBR Green, cherry-picked samples (AID 1159567). It counts as functional, cell-based.

Consider 22 molecules from ChEMBL document CHEMBL1201862, “PubChem BioAssay data set” (2004).

Active and inactive are the calls of the source.

Chain of Cytochrome P450 3A4 (P08684 whole entry): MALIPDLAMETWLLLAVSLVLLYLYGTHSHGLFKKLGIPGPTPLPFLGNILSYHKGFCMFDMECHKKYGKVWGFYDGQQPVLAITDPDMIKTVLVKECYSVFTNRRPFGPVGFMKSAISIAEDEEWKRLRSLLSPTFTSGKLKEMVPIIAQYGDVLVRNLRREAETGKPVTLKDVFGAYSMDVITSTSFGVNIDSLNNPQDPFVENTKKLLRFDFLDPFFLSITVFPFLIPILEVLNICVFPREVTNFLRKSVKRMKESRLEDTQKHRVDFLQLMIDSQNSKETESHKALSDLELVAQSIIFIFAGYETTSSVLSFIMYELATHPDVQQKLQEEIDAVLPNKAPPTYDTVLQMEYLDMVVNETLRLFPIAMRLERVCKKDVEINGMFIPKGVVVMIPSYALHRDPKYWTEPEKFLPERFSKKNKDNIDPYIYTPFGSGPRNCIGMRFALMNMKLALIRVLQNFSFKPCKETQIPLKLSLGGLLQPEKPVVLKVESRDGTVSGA
Chain of Glyceraldehyde-3-phosphate dehydrogenase (P04406 whole entry): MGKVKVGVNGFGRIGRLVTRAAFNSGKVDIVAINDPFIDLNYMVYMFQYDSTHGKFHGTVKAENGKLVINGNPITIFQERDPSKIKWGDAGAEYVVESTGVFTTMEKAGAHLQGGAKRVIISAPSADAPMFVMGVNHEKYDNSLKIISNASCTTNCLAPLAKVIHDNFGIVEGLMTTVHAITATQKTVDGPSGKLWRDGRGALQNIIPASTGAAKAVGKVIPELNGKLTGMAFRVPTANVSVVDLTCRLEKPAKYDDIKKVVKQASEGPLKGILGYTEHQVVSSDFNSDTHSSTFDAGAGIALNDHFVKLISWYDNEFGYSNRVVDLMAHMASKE

For orientation: IC50 means the midpoint of a concentration-inhibition curve. As for `Cc1noc(NS(=O)(=O)c2ccc(NC(=O)CSc3n[nH]c4c5ccccc5nc-4n3)cc2)c1C`, the figures for the 50% inhibitory concentration (IC50) in assay [1] and in assay [2] were 21.9 µM (active) and 2.57 µM (active), respectively.

As to `CCOC(=O)c1oc2c(O)c(O)ccc2c(=O)c1-c1nncn1-c1ccccc1`, the IC50 in assay [2] was 6.58 µM (active).

One may read the AC50 as the midpoint of the concentration-response curve, whichever way the signal moves. With `CC(C)c1nc(N(C)S(C)(=O)=O)nc(-c2ccc(F)cc2)c1/C=C/C(O)CC(O)CC(=O)O` (stereo not drawn), in [3], the half-maximal activity concentration (AC50) is 39.8 µM (inconclusive).

Turning to `Cc1ccccc1Nc1nc(N)nc(COC(=O)c2ccc([N+](=O)[O-])o2)n1`, in assay [4], the concentration at half-maximal activity (AC50) is 47 µM (active).

Turning to `CC(C)Cn1c(N)c(C(=O)COC(=O)c2cc(C(F)(F)F)nc3c(C(F)(F)F)cccc23)c(=O)n(C)c1=O`, the AC50 in assay [3] is 3.16 µM (inconclusive).

Regarding `OC(CN1CCNCC1)Cn1c2ccc(Br)cc2c2cc(Br)ccc21` (stereo not drawn), the AC50 in [3] was 31.6 µM (inconclusive).

As to `CC(=O)N1[C@H](C)C=C[C@]1(Cc1ccccc1)C(=O)NCCc1c[nH]c2ccccc12`, the half-maximal activity concentration (AC50) in assay [3] is 1.58 µM (inconclusive).

Regarding `Cc1cc(NS(=O)(=O)c2ccc(NC(=O)COc3ccccc3[N+](=O)[O-])cc2)no1`, the AC50 in assay [4] was 10.5 µM (active).

Consider `O=C(O)CS(=O)(=O)c1cccc(C(=O)O)c1`, for which the IC50 in assay [5] is > 100 µM (not active).

Consider `Cc1ccc(N2C(=O)C(Cl)=C(N3CCN(c4ncccn4)CC3)C2=O)cc1`, for which the IC50 in assay [5] was > 50 µM (inconclusive).

Turning to `Clc1ccc(C2[C@H]3CN(CC4CCCCC4)[C@H](c4ccccc4)C34CC2(c2ccccc2)C4)cn1` (stereo partly drawn), the AC50 in [3] is 15.8 µM (inconclusive).

On to `C=C1C([C@@]2(C)C(OC(C)=O)CC(=O)O[C@@](C)(COC(C)=O)C2CC(=O)OC)C(OC=O)C(OC(=O)C(O)C(C)CC)[C@]2(C)C(c3ccoc3)CC(=O)C12O` (stereo partly drawn), for which, in assay [3], the AC50 was 10 µM (inconclusive).

As for `N=C(CSc1nc(-c2ccccc2)c(-c2ccccc2)o1)NO`, the IC50 in assay [2] is 7.64 µM (active).

For `C[C@@H]1CN(C2=C(Cl)C(=O)N(c3ccnc(Cl)c3)C2=O)CCN1`, the IC50 in assay [5] is > 50 µM (inconclusive).

`O=C(O)c1cc(S(=O)(=O)Nc2ccc3c[nH]nc3c2)ccc1Br`: the concentration at half-maximal activity (AC50) in assay [4] was 14.5 µM (active).

As to `C[C@@H]1CN([C@H](C)CO)S(=O)(=O)c2ccc(C#Cc3ccccc3F)cc2O[C@@H]1CN(C)C(=O)Cc1ccncc1`, the results for the half-maximal activity concentration (AC50) in assay [6] and in assay [7] were 5.11 µM (active) and 32.4 µM (active), respectively.

Consider `C[C@@H]1CCCCO[C@@H](CN(C)Cc2ccc3c(c2)OCO3)[C@H](C)CN([C@H](C)CO)C(=O)c2cc(NC(=O)Nc3ccc(C(F)(F)F)cc3)ccc2O1`, for which the values for the concentration at half-maximal activity (AC50) in assay [6], in assay [7] and in [8] were 5.55 µM (active), 9.09 µM (active) and 8.08 µM (active), respectively.

On to `COc1ccc(NC(=O)N2CCCCN3[C@@H](CO)[C@H](c4ccc(C#CCC(C)C)cc4)[C@@H]3C2)cc1`, for which the AC50 in assay [6] is 3.18 µM (active); in assay [9], 8.52 µM (active); in assay [10], 491 nM (active); in assay [7], 11.6 µM (active); in assay [8], 11.7 µM (active).

As for `COc1ccc(NC(=O)N(C)C[C@H]2Oc3cc(C#CCC(C)C)ccc3S(=O)(=O)N([C@@H](C)CO)C[C@H]2C)cc1`, the values for the AC50 in assay [7] and in assay [8] were 27 µM (active) and 6.46 µM (active), respectively.

As for `CSc1nnc(-c2cc(Br)ccc2/N=C/c2c(C)nn(-c3ccccc3)c2O)c(O)n1`, the IC50 in [2] was 24.8 µM (active).

Regarding `COc1ccc(C#Cc2ccc([C@H]3[C@H](CO)N4CCCCN(Cc5ccccc5F)C[C@@H]34)cc2)cc1`, the AC50 was 10.9 µM (active) in [9] and 781 nM (active) in assay [10].

In the case of `C[C@H]1CN([C@@H](C)CO)S(=O)(=O)c2ccc(C3=CCCCC3)cc2O[C@@H]1CN(C)C(=O)Cc1ccncc1`, the values for the AC50 in [9] and in assay [10] were > 39 µM (inactive) and 3130 nM (active), respectively.
